Data taken from patent US20260083865A1, “PROSTATE SPECIFIC MEMBRANE ANTIGEN (PSMA) LIGANDS AND USE THEREOF” (priority 2022, published 2026).
Like-named read-outs stand apart in the source and are kept apart here. Numbered stars: 1 amine (or outer) side, 2 acyl side, 3 side chain; on linkers, the order of the positions; unused ones are H or OH. Bridge positions count the residues as written; N and C are the ends. Square brackets hold non-standard residues; d marks the D form. Peptide text beside a SMILES is read from it. * marks the point of attachment. X7 = O=C(O)CN1CCN(CC(=O)O)CCN(CC(=O)NC2CCN(CC(=O)*)CC2)CCN(CC(=O)O)CC1; X3 = O=C(O)CN1CCN(CC(=O)O)CCN(CC(=O)NCCCOCCOCCOCCCN*)CCN(CC(=O)O)CC1; DOTA = O=C(O)CN1CCN(CC(=O)O)CCN(CC(=O)*)CCN(CC(=O)O)CC1; Phe(4-Cl) = N[C@@H](Cc1ccc(Cl)cc1)C(=O)O; d(αMeD) = C[C@@](N)(CC(=O)O)C(=O)O; X1 = O=C(CC1CCN([*:1])CC1)[*:2]; Cit = NC(=O)NCCC[C@H](N)C(=O)O; Suc = O=C(CCC(=O)[*:2])[*:1]; Tle = CC(C)(C)[C@H](N)C(=O)O; Propanoyl(3-OH) = O=C(CCO)*; αMeP = C[C@@]1(C(=O)O)CCCN1; Aib = CC(C)(N)C(=O)O; Guanidino = N=C(N)N*; βAla = NCCC(=O)O; Sar = CNCC(=O)O

Tests used:
[1] = target: T1, Fc-fusion protein of human PSMA (hPSMA-Fc) (Homo sapiens, UniProt Q04609); experiment: Surface plasmon resonance assay (Biacore T200, single cycle kinetic); format: binding; settings: hPSMA-Fc, 25° C., read-out: pKD CAT (converted)
T1 construct: purchased Acro Biosystems PSA-H5264
Method in brief: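 KD, expressed as pKD, came from 1:1 Langmuir fits of reference- and buffer-blank-subtracted SPR data. The runs were single-cycle kinetics at 25° C in HBST/0.1% DMSO over human PSMA-Fc, captured to ~1000 RU on a peptide-coated CM5 surface and regenerated with 10 mM glycine pH 1.5.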

[2] = target: T2, PSMA-expressing C4-2 cells (Homo sapiens, UniProt Q04609); experiment: FACS binding assay (competition with 50 nM PSM-0183); settings: for IC50: read-out: pIC50 [C4-2] CAT (converted)
T2 construct: PSMA-expressing C4-2 cells (ATCC, Cat. No. CRL-3314) were cultured in RPMI-1640; host or cells: C4-2 cells
Method in brief: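 Competition format: fluorescent tracer PSM-0183 (50 nM) displaced from PSMA on C4-2 cells by a test compound titration over 1 h at 4 °C. Bound tracer was quantified as flow-cytometric AF488 median fluorescence after washing. Four-parameter logistic fits of MFI data gave IC50 and pIC50.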

[3] = pKD category for PSMA SPR activity assay
[4] = pIC50 category of FACS binding, C4-2 cells
[5] = SPR, single cycle kinetic, category
[6] = FACS binding, C4-2 cells, competition with 50 nM PSM-0183, category
[7] = FACS binding, PSMA-expressing C4-2 cells, pIC50 category

T1 sequence (Q04609 44-750 limits assumed): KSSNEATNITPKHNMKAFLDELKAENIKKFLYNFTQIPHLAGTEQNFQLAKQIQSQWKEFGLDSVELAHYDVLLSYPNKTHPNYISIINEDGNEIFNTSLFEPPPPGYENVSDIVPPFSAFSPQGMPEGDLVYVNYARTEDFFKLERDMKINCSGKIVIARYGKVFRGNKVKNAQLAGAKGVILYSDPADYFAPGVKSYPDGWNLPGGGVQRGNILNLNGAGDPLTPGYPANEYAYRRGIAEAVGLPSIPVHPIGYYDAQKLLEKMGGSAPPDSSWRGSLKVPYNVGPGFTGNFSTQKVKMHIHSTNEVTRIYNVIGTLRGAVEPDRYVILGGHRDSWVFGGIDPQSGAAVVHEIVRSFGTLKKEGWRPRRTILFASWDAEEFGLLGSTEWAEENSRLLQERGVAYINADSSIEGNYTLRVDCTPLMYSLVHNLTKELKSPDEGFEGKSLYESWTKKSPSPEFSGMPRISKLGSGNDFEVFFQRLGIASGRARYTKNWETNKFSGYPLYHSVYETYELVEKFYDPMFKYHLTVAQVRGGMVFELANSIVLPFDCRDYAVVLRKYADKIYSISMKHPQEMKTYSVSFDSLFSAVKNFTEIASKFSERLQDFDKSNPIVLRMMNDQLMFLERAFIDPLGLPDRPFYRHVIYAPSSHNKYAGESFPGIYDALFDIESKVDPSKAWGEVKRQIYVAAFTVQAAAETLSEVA
T2 sequence (Q04609 whole entry): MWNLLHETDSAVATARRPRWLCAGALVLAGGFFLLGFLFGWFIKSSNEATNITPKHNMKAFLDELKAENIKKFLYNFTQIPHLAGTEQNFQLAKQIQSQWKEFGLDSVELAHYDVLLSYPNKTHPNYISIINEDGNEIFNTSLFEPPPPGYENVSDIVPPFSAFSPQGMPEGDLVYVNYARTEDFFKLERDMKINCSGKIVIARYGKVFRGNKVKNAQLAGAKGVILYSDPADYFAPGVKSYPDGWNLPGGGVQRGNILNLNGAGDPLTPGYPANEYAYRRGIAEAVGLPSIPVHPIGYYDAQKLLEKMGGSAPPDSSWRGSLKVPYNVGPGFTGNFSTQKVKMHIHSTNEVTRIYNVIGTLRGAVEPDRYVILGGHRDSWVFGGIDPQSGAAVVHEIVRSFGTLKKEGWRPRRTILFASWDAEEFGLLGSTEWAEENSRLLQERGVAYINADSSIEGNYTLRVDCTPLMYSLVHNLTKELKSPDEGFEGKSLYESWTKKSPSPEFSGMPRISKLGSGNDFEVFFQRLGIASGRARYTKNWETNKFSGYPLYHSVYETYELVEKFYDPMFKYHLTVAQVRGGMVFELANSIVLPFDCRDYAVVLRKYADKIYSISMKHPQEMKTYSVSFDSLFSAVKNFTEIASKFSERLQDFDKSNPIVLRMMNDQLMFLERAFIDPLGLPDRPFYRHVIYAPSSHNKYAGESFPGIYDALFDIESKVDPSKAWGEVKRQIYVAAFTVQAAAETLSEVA

C[C@@H](O)[C@H](NC(=O)CN1CCN(CC(=O)O)CCN(CC(=O)O)CCN(CC(=O)O)CC1)C(=O)NC(C)(C)C(=O)N[C@@H](Cc1ccccc1)C(=O)N[C@H]1CSSC[C@@H](C(=O)N[C@H](C(=O)NCCC(N)=O)C(C)(C)C)NC(=O)[C@H](CC(N)=O)NC(=O)C(C)(C)NC(=O)[C@H](CCCNC(=N)N)NC(=O)[C@H](CCCCN)NC1=O [PSM-0539, DOTA-Thr-Aib-Phe-[Cys-Lys-Arg-Aib-Asn-Cys]-Tle-Bal-NH2] ({DOTA}-T[Aib]FCKR[Aib]NC[Tle][βAla]-NH2; disulfide 4-9)
Kd [1, 3]: 12.6 to 126 nM
IC50 [2, 4]: < 200 nM

CC(=O)N[C@H](C(=O)NC(C)(C)C(=O)N[C@@H](Cc1ccccc1)C(=O)N[C@H]1CSSC[C@@H](C(=O)N[C@H](C(=O)N[C@H](C(N)=O)[C@@H](C)O)C(C)(C)C)NC(=O)[C@H](CC(N)=O)NC(=O)[C@]2(C)CCCN2C(=O)[C@H](CCCNC(=N)N)NC(=O)[C@H](CCCCN)NC1=O)[C@@H](C)O [PSM-0233, Ac-Thr-Aib-Phe-[Cys-Lys-Arg-Pam-Asn-Cys]-Tle-Thr-NHZ] (Ac-T[Aib]FCKR[αMeP]NC[Tle]T-NH2; disulfide 4-9)
Kd [1, 5]: < 12.6 nM
IC50 [2, 6]: < 200 nM

CC(=O)N[C@H](C(=O)NC(C)(C)C(=O)N[C@@H](Cc1ccccc1)C(=O)N[C@H]1CSSC[C@@H](C(=O)N[C@H](C(=O)N[C@H](C(=O)N2CCC(CC(=O)N[C@H](CCCCNC(=O)CN3CCN(CC(=O)O)CCN(CC(=O)O)CCN(CC(=O)O)CC3)C(N)=O)CC2)[C@@H](C)O)C(C)(C)C)NC(=O)[C@H](CC(N)=O)NC(=O)C(C)(C)NC(=O)[C@H](CCCNC(N)=O)NC(=O)[C@H](CCCCN)NC1=O)[C@@H](C)O [PSM-0252, Ac-Thr-Aib-Phe-[Cys-Lys-Cit-Aib-Asn-Cys]-Tle-Thr-Cmp-lys(DOTA)-NH2] (Ac-T[Aib]FCK[Cit][Aib]NC[Tle]T[X1][dK](DOTA)-NH2; disulfide 4-9)
Kd [1, 5]: > 501 nM
IC50 [2, 6]: 200 to 1260 nM

CC(=O)N[C@H](C(=O)N(C)CC(=O)N[C@@H](Cc1ccccc1)C(=O)N[C@H]1CSSC[C@@H](C(=O)N[C@H](C(=O)N[C@H](C(N)=O)[C@@H](C)O)C(C)(C)C)NC(=O)[C@H](CC(N)=O)NC(=O)C(C)(C)NC(=O)[C@H](CCCNC(=N)N)NC(=O)[C@H](CCCCN)NC1=O)[C@@H](C)O [PSM-0408, Ac-Thr-Nmg-Phe-[Cys-Lys-Arg-Aib-Asn-Cys]-Tle-Thr-NH2] (Ac-T[Sar]FCKR[Aib]NC[Tle]T-NH2; disulfide 4-9)
Kd [1, 3]: 126 to 501 nM
IC50 [2, 4]: 200 to 1260 nM

C[C@@H](O)[C@H](NC(=O)[C@@H](NC(=O)[C@@H]1CSSC[C@H](NC(=O)[C@H](Cc2ccc(Cl)cc2)NC(=O)[C@@](C)(CC(=O)O)NC(=O)[C@@H](NC(=O)CC2CCN(C(=O)CN3CCN(CC(=O)O)CCN(CC(=O)O)CCN(CC(=O)O)CC3)CC2)[C@@H](C)O)C(=O)N[C@@H](CCCCN)C(=O)N[C@@H](CCCNC(=N)N)C(=O)NC(C)(C)C(=O)N[C@@H](CC(N)=O)C(=O)N1)C(C)(C)C)C(N)=O [PSM-0366, DOTA-Cmp-Thr-amd-Pcf-[Cys-Lys-Arg-Aib-Asn-Cys]-Tle-Thr-NH2] ({DOTA}-[X1]T[d(αMeD)][Phe(4-Cl)]CKR[Aib]NC[Tle]T-NH2; disulfide 5-10)
Kd [1, 3]: 126 to 501 nM
IC50 [2, 4]: 200 to 1260 nM

CC(=O)N[C@H](C(=O)NC(C)(C)C(=O)N[C@@H](Cc1ccc(Cl)cc1)C(=O)N[C@H]1CSSC[C@@H](C(=O)N[C@H](C(=O)N[C@H](C(N)=O)[C@@H](C)O)C(C)(C)C)NC(=O)[C@H](CC(N)=O)NC(=O)C(C)(C)NC(=O)[C@H](CCC(=O)NC(=N)N)NC(=O)[C@H](CCCCN)NC1=O)[C@@H](C)O [PSM-0189, Ac-Thr-Aib-Pcf-[Cys-Lys-Gln(Gu)-Aib-Asn-Cys]-Tle-Thr-NH2] (Ac-T[Aib][Phe(4-Cl)]CKE(Guanidino)[Aib]NC[Tle]T-NH2; disulfide 4-9)
Kd [1, 5]: < 12.6 nM
IC50 [2, 6]: < 200 nM

C[C@@H]1NC(=O)[C@H](CCCNC(=N)N)NC(=O)[C@H](CCCCN)NC(=O)[C@@H](NC(=O)[C@H](Cc2ccccc2)NC(=O)C(C)(C)NC(=O)[C@@H](NC(=O)CCC(=O)NCCCOCCOCCOCCCNC(=O)CN2CCN(CC(=O)O)CCN(CC(=O)O)CCN(CC(=O)O)CC2)[C@@H](C)O)CSSC[C@@H](C(=O)N[C@H](C(=O)N[C@H](C(=O)N[C@@H](CC(=O)O)C(N)=O)[C@@H](C)O)C(C)(C)C)NC(=O)[C@H](CC(N)=O)NC1=O [PSM-0193, DOTA-Ttds-Thr-Aib-Phe-[Cys-Lys-Arg-Ala-Asn-Cys]-Tle-Thr-Asp-NH2] ({X3-Suc}-T[Aib]FCKRANC[Tle]TD-NH2; disulfide 4-9)
Kd [1, 5]: < 12.6 nM
IC50 [2, 6]: < 200 nM

CC(C)C[C@H](NC(=O)CC1CCN(C(=O)CN2CCN(CC(=O)O)CCN(CC(=O)O)CCN(CC(=O)O)CC2)CC1)C(=O)NC(C)(C)C(=O)N[C@@H](Cc1ccccc1)C(=O)N[C@H]1CSSC[C@@H](C(=O)N[C@H](C(=O)N[C@H](C(N)=O)[C@@H](C)O)C(C)(C)C)NC(=O)[C@H](CC(N)=O)NC(=O)C(C)(C)NC(=O)[C@H](CCCNC(=N)N)NC(=O)[C@H](CCCCN)NC1=O [PSM-0220, DOTA-Cmp-Leu-Aib-Phe-[Cys-Lys-Arg-Aib-Asn-Cys]-Tle-Thr-NH2] ({DOTA}-[X1]L[Aib]FCKR[Aib]NC[Tle]T-NH2; disulfide 5-10)
Kd [1, 5]: 12.6 to 126 nM
IC50 [2, 6]: < 200 nM

C[C@@H](O)[C@H](NC(=O)[C@@H](NC(=O)[C@@H]1CSSC[C@H](NC(=O)[C@H](Cc2ccc(Cl)cc2)NC(=O)C(C)(C)NC(=O)CCO)C(=O)N[C@@H](CCCCN)C(=O)N[C@@H](CCCNC(=N)N)C(=O)N[C@@H](CCCCNC(=O)CN2CCC(NC(=O)CN3CCN(CC(=O)O)CCN(CC(=O)O)CCN(CC(=O)O)CC3)CC2)C(=O)N[C@@H](CC(N)=O)C(=O)N1)C(C)(C)C)C(N)=O [PSM-0324, HPA-Aib-Pcf-[Cys-Lys-Arg-Lys(DOTA-APAc)-Asn-Cys]-Tle-Thr-NH2] ({Propanoyl(3-OH)}-[Aib][Phe(4-Cl)]CKRK(X7)NC[Tle]T-NH2; disulfide 3-8)
Kd ([1]; PSMA SPR assay, pKD category): < 12.6 nM
IC50 [2, 7]: < 200 nM

CC(=O)N[C@H](C(=O)NC(C)(C)C(=O)N[C@@H](Cc1ccccc1)C(=O)N[C@H]1CSSC[C@@H](C(=O)N[C@H](C(=O)N[C@H](C(=O)N[C@@H](CC(=O)O)C(N)=O)[C@@H](C)O)C(C)(C)C)NC(=O)[C@H](CC(N)=O)NC(=O)[C@H](C)NC(=O)[C@H](CCCNC(=N)N)NC(=O)[C@H](CCCCN)NC1=O)[C@@H](C)O [PSM-0315, Ac-Thr-Aib-Phe-[Cys-Lys-arg-Als-Asn-Cys]-Tle-Thr-Asp-NH2] (Ac-T[Aib]FCKRANC[Tle]TD-NH2; disulfide 4-9)
Kd ([1]; PSMA SPR assay, pKD category): 12.6 to 126 nM
pIC50 [C4-2] CAT [2, 7]: A (pIC50 values >6.7)
